Assay results from ChEMBL document CHEMBL4706582, “Design, synthesis and molecular docking study of α-triazolylsialosides as non-hydrolyzable and potent CD22 ligands” (Eur J Med Chem, 2020).

Assays:
[1] = molecular target: T1, B-cell receptor CD22 (Homo sapiens, UniProt P20273); assay: Binding affinity to recombinant human CD22d1-3-Fc expressed in 293T cells by surface plasmon resonance assay; parameters: species or system HEK293T
T1 sequence (P20273 whole entry): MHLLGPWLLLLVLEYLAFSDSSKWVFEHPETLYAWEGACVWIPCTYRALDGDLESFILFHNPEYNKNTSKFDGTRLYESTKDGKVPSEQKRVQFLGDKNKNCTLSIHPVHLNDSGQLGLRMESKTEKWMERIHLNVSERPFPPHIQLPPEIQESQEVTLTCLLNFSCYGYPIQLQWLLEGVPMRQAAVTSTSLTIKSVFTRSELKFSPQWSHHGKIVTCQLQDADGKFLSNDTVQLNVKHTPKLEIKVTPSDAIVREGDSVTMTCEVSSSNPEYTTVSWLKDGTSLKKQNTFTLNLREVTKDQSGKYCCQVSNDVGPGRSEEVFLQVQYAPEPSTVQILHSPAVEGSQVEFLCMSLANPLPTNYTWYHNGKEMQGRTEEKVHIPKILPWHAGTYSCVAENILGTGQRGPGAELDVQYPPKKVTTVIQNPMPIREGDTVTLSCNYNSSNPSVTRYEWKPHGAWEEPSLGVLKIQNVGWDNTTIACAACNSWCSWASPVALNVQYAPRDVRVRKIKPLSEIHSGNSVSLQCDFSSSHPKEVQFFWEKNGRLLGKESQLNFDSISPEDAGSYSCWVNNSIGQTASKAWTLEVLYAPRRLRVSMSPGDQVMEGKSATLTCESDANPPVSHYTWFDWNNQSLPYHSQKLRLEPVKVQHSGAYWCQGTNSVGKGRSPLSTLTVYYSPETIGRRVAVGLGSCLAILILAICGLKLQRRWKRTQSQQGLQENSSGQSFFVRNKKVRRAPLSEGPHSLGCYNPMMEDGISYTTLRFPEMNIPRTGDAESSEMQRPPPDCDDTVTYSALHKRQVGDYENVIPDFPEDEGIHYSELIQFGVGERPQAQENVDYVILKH

[2] = molecular target: T2, Myelin-associated glycoprotein (Homo sapiens, UniProt P20916); assay: Binding affinity to human MAG by surface plasmon resonance assay
T2 sequence (P20916 whole entry): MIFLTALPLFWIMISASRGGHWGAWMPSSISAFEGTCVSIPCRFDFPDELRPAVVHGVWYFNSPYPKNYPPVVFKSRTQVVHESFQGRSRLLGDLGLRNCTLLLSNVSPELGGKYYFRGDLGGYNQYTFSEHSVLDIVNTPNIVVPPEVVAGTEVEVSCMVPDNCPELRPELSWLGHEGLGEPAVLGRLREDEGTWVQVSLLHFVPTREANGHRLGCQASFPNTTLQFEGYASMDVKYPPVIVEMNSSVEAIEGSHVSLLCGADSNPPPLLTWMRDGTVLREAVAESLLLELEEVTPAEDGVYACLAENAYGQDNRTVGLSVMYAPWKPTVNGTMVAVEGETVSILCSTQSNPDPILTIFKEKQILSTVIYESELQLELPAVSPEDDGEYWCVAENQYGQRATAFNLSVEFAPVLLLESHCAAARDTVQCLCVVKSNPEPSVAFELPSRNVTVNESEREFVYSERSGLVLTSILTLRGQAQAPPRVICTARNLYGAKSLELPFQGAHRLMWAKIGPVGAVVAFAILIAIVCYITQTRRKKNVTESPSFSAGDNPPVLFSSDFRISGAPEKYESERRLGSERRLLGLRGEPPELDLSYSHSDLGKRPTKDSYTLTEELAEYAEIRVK

[3] = organism: Homo sapiens; assay: Selectivity index, ratio of Kd for human MAG to Kd for human CD22

| Kd [1] [nM] | Kd [2] [nM] | Selectivity Index [3] | SMILES |
| --- | --- | --- | --- |
| 628 | – | – | C#Cc1ccc(CO[C@]2(C(=O)O)C[C@H](O)[C@@H](NC(=O)CO)[C@H]([C@H](O)[C@H](O)CNC(=O)Cc3ccc(-c4ccc(O)cc4)cc3)O2)cc1 |
| 740 | – | – | O=C(CCCC[C@H]1SC[C@H]2NC(=O)N[C@H]21)NCCOCCOCCOCCn1cc(-c2ccc(CO[C@]3(C(=O)O)C[C@H](O)[C@@H](NC(=O)CO)[C@H]([C@H](O)[C@H](O)CNC(=O)Cc4ccc(-c5ccc(O)cc5)cc4)O3)cc2)nn1 |
| 335 | 30700 | 91.6 | O=C(Cc1ccc(-c2ccc(O)cc2)cc1)NC[C@@H](O)[C@@H](O)[C@@H]1O[C@](C(=O)O)(n2cc(-c3ccccc3)nn2)C[C@H](O)[C@H]1NC(=O)CO |
| 766 | – | – | O=C(Cc1ccc(-c2ccc(O)cc2)cc1)NC[C@@H](O)[C@@H](O)[C@@H]1O[C@](C(=O)O)(n2cc(CC3CCCCC3)nn2)C[C@H](O)[C@H]1NC(=O)CO |
| 458 | 56400 | 123 | O=C(Cc1ccc(-c2ccc(O)cc2)cc1)NC[C@@H](O)[C@@H](O)[C@@H]1OC(OCc2ccccc2)(C(=O)O)CC(O)[C@H]1NC(=O)CO (single isomer, unassigned) |
| 620 | – | – | O=C(Cc1ccc(-c2ccc(O)cc2)cc1)NC[C@@H](O)[C@@H](O)[C@@H]1O[C@](C(=O)O)(n2cc(-c3ccc(-c4ccccc4)cc3)nn2)C[C@H](O)[C@H]1NC(=O)CO |
| 952 | – | – | O=C(Cc1ccc(-c2ccc(O)cc2)cc1)NC[C@@H](O)[C@@H](O)[C@@H]1O[C@](C(=O)O)(n2cc(Cc3ccccc3)nn2)C[C@H](O)[C@H]1NC(=O)CO |
| 860 | – | – | O=C(Cc1ccc(-c2ccc(O)cc2)cc1)NC[C@@H](O)[C@@H](O)[C@@H]1O[C@](C(=O)O)(n2cc(COC3CCCCC3)nn2)C[C@H](O)[C@H]1NC(=O)CO |
